Patent US20260347347A1, “2-AZA-AND 2-OXABICYCLO[2.1.1]HEXANE DERIVATIVES AS FACTOR XIIA ENZYME INHIBITORS” (KALVISTA PHARMACEUTICALS LIMITED, priority 2022, published 2026)

Target: T1, Human Factor XIIa (Homo sapiens, UniProt P00748)
T1 construct: purchased Enzyme Research Laboratories
T1 sequence (P00748 373-615 limits assumed): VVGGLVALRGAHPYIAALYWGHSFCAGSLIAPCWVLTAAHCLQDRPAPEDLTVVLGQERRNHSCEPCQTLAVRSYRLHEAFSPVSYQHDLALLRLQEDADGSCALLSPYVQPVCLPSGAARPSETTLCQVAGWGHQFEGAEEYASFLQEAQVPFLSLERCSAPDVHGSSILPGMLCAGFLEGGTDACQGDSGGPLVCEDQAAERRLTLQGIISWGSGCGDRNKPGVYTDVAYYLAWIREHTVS
T1 sequence (P00748 20-372 partner limits assumed): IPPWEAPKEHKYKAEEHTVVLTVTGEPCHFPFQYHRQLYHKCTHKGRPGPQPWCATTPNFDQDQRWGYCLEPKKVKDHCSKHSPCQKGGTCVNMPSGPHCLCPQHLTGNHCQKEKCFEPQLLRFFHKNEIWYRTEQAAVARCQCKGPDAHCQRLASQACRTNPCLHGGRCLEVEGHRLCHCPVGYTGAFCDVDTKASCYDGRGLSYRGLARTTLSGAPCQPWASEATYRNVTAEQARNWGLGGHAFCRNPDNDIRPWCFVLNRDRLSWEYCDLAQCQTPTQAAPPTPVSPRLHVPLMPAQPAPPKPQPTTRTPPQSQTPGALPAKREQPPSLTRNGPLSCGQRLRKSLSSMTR
Assay: Determination of FXIIa inhibition (in vitro IC50 assay, fluorogenic substrate H-DPro-Phe-Arg-AFC)
Assay type: biochemical
Settings: human Factor XIIa; fluorogenic substrate H-DPro-Phe-Arg-AFC at Km concentration; 5 min, 25 °C; class symbols; read-out: Human FXIIa IC50
Experimental: In vitro inhibition of Factor XIIa was determined using an IC50 assay based on standard literature methods (see e.g Baeriswyl et al., ACS Chem. Biol., 2015, 10 (8) 1861; Bouckaert et al., European Journal of Medicinal Chemistry 110 (2016) 181). Human Factor XIIa (Enzyme Research Laboratories) was incubated at 25 °C with the fluorogenic substrate H-DPro-Phe-Arg-AFC (Peptide Protein Science) and various concentrations of the test compound. Protease activity was measured by monitoring the accumulation of liberated fluorescence from the substrate over 5 min at 25 °C. The linear rate of fluorescence increase per minute was expressed as percentage (%) activity. The Km for the cleavage of the substrate by FXIIa was determined by standard transformation of the Michaelis-Menten equation. The compound inhibitor assays were performed at substrate Km concentration. IC50 values were calculated as the concentration of inhibitor giving 50% inhibition (IC50) of the uninhibited enzyme activity (100%).

SMILES | IC50
Nc1nccc2c(NCC34CC(c5ncc(-c6ccccc6)o5)(CO3)C4)cccc12 [Example 1, N5-((4-(5-Phenyloxazol-2-yl)-2-oxabicyclo[2.1.1]hexan-1-yl)methyl)isoquinoline-1,5-diamine] | 40 to 100 µM
Nc1nccc2c(NCC34CC(CN5C(=O)CC[C@H]5c5ccccc5)(CO3)C4)cccc12 [Example 2, (S)-1-((1-(((1-aminoisoquinolin-5-yl)amino)methyl)-2-oxabicyclo[2.1.1]hexan-4-yl)methyl)-5-phenylpyrrolidin-2-one] | 3 to 10 µM
Cn1ccc(OCC23CN(C(=O)Cc4ccc5c(c4)CCO5)C(CNc4cccc5c(N)nccc45)(C2)C3)cc1=O [Example 3, 4-((1-(((1-aminoisoquinolin-5-yl)amino)methyl)-2-(2-(2,3-dihydrobenzofuran-5-yl)acetyl)-2-azabicyclo[2.1.1]hexan-4-yl)methoxy)-1-methylpyridin-2(1H)-one] | 0.001 to 0.01 µM
Cn1ccc(OCC23CN(C(=O)C(C)(C)Oc4ccccc4)C(CNc4cccc5c(N)nccc45)(C2)C3)cc1=O [Example 4, 4-((1-(((1-aminoisoquinolin-5-yl)amino)methyl)-2-(2-methyl-2-phenoxypropanoyl)-2-azabicyclo[2.1.1]hexan-4-yl)methoxy)-1-methylpyridin-2(1H)-one] | 0.1 to 0.3 µM
Cn1ccc(OCC23CN(C(=O)C4(Oc5ccccc5)CC4)C(CNc4cccc5c(N)nccc45)(C2)C3)cc1=O [Example 6, 4-((1-(((1-aminoisoquinolin-5-yl)amino)methyl)-2-(1-phenoxycyclopropane-1-carbonyl)-2-azabicyclo[2.1.1]hexan-4-yl)methoxy)-1-methylpyridin-2(1H)-one] | 0.1 to 0.3 µM
Cn1ccc(OCC23CN(C(=O)C(C)(C)Cc4ccccc4)C(CNc4cccc5c(N)nccc45)(C2)C3)cc1=O [Example 7, 4-((1-(((1-aminoisoquinolin-5-yl)amino)methyl)-2-(2,2-dimethyl-3-phenylpropanoyl)-2-azabicyclo[2.1.1]hexan-4-yl)methoxy)-1-methylpyridin-2(1H)-one] | 0.1 to 0.3 µM
Cn1ccc(OCC23CN(C(=O)C4(Cc5ccccc5)CC4)C(CNc4cccc5c(N)nccc45)(C2)C3)cc1=O [Example 8, 4-((1-(((1-aminoisoquinolin-5-yl)amino)methyl)-2-(1-benzylcyclopropane-1-carbonyl)-2-azabicyclo[2.1.1]hexan-4-yl)methoxy)-1-methylpyridin-2(1H)-one] | 0.01 to 0.1 µM
Cn1ccc(OCC23CN(C(=O)CC4CCOCC4)C(CNc4cccc5c(N)nccc45)(C2)C3)cc1=O [Example 9, 4-((1-(((1-aminoisoquinolin-5-yl)amino)methyl)-2-(2-(tetrahydro-2H-pyran-4-yl)acetyl)-2-azabicyclo[2.1.1]hexan-4-yl)methoxy)-1-methylpyridin-2(1H)-one] | 0.01 to 0.1 µM
Cn1ccc(OCC23CN(C(=O)C[C@H]4CCOC4)C(CNc4cccc5c(N)nccc45)(C2)C3)cc1=O [Example 10, (R)-4-((1-(((1-aminoisoquinolin-5-yl)amino)methyl)-2-(2-(tetrahydrofuran-3-yl)acetyl)-2-azabicyclo[2.1.1]hexan-4-yl)methoxy)-1-methylpyridin-2(1H)-one] | 0.01 to 0.1 µM
Cn1ccc(OCC23CN(C(=O)C[C@@H]4CCOC4)C(CNc4cccc5c(N)nccc45)(C2)C3)cc1=O [Example 11, (S)-4-((1-(((1-aminoisoquinolin-5-yl)amino)methyl)-2-(2-(tetrahydrofuran-3-yl)acetyl)-2-azabicyclo[2.1.1]hexan-4-yl)methoxy)-1-methylpyridin-2(1H)-one] | 0.01 to 0.1 µM
C[C@@H](C(=O)N1CC2(COc3ccn(C)c(=O)c3)CC1(CNc1cccc3c(N)nccc13)C2)c1ccccc1 [Example 12, (R)-4-((1-(((1-aminoisoquinolin-5-yl)amino)methyl)-2-(2-phenylpropanoyl)-2-azabicyclo[2.1.1]hexan-4-yl)methoxy)-1-methylpyridin-2(1H)-one] | 0.01 to 0.1 µM
C[C@H](C(=O)N1CC2(COc3ccn(C)c(=O)c3)CC1(CNc1cccc3c(N)nccc13)C2)c1ccccc1 [Example 13, (S)-4-((1-(((1-aminoisoquinolin-5-yl)amino)methyl)-2-(2-phenylpropanoyl)-2-azabicyclo[2.1.1]hexan-4-yl)methoxy)-1-methylpyridin-2(1H)-one] | 0.01 to 0.1 µM

Now from value to compound:

IC50 | SMILES
0.001 to 0.01 µM | Cn1ccc(OCC23CN(C(=O)N[C@@H]4C[C@H]4c4ccccc4)C(CNc4cccc5c(N)nccc45)(C2)C3)cc1=O (racemic) [Example 60, rac-1-(((1-aminoisoquinolin-5-yl)amino)methyl)-4-(((1-methyl-2-oxo-1,2-dihydropyridin-4-yl)oxy)methyl)-N-((1R,2S)-2-phenylcyclopropyl)-2-azabicyclo[2.1.1]hexane-2-carboxamide]
0.01 to 0.1 µM | CO[C@H]1CC[C@H](CC(=O)N2CC3(COc4cc(C)n(C)c(=O)c4)CC2(CNc2cccc4c(N)nccc24)C3)CC1 (single isomer, unassigned) [Example 24, 4-((1-(((1-aminoisoquinolin-5-yl)amino)methyl)-2-(2-((1r,4r)-4-methoxycyclohexyl)acetyl)-2-azabicyclo[2.1.1]hexan-4-yl)methoxy)-1,6-dimethylpyridin-2(1H)-one]
0.01 to 0.1 µM | CO[C@H]1CC[C@@H](CC(=O)N2CC3(COc4cc(C)n(C)c(=O)c4)CC2(CNc2cccc4c(N)nccc24)C3)CC1 (single isomer, unassigned) [Example 25, 4-((1-(((1-aminoisoquinolin-5-yl)amino)methyl)-2-(2-((1s,4s)-4-methoxycyclohexyl)acetyl)-2-azabicyclo[2.1.1]hexan-4-yl)methoxy)-1,6-dimethylpyridin-2(1H)-one]
0.01 to 0.1 µM | Cn1ccc(OCC23CN(C(=O)CCc4ccc5c(c4)CCO5)C(CNc4cccc5c(N)nccc45)(C2)C3)cc1=O [Example 14, 4-((1-(((1-aminoisoquinolin-5-yl)amino)methyl)-2-(3-(2,3-dihydrobenzofuran-5-yl)propanoyl)-2-azabicyclo[2.1.1]hexan-4-yl)methoxy)-1-methylpyridin-2(1H)-one]
0.001 to 0.01 µM | Cn1ccc(OCC23CN(C(=O)Cc4ccc5c(c4)CCCO5)C(CNc4cccc5c(N)nccc45)(C2)C3)cc1=O [Example 15, 4-((1-(((1-Aminoisoquinolin-5-yl)amino)methyl)-2-(2-(chroman-6-yl)acetyl)-2-azabicyclo[2.1.1]hexan-4-yl)methoxy)-1-methylpyridin-2(1H)-one]
0.01 to 0.1 µM | CC(=O)N1CCC(CC(=O)N2CC3(COc4ccn(C)c(=O)c4)CC2(CNc2cccc4c(N)nccc24)C3)CC1 [Example 16, 4-((2-(2-(1-acetylpiperidin-4-yl)acetyl)-1-(((1-aminoisoquinolin-5-yl)amino)methyl)-2-azabicyclo[2.1.1]hexan-4-yl)methoxy)-1-methylpyridin-2(1H)-one]
0.001 to 0.01 µM | Cn1ccc(OCC23CN(C(=O)Cc4ccc5c(c4)NC(=O)CO5)C(CNc4cccc5c(N)nccc45)(C2)C3)cc1=O [Example 17, 6-(2-(1-(((1-aminoisoquinolin-5-yl)amino)methyl)-4-(((1-methyl-2-oxo-1,2-dihydropyridin-4-yl)oxy)methyl)-2-azabicyclo[2.1.1]hexan-2-yl)-2-oxoethyl)-2H-benzo[b][1,4]oxazin-3(4H)-one]
0.1 to 0.3 µM | Cn1ccc(OCC23CN(C(=O)C4(c5ccccc5)CC4)C(CNc4cccc5c(N)nccc45)(C2)C3)cc1=O [Example 18, 4-((1-(((1-aminoisoquinolin-5-yl)amino)methyl)-2-(1-phenylcyclopropane-1-carbonyl)-2-azabicyclo[2.1.1]hexan-4-yl)methoxy)-1-methylpyridin-2(1H)-one]
0.01 to 0.1 µM | Cn1ccc(CCC(=O)N2CC3(COc4ccn(C)c(=O)c4)CC2(CNc2cccc4c(N)nccc24)C3)cc1=O [Example 19, 4-((1-(((1-aminoisoquinolin-5-yl)amino)methyl)-2-(3-(1-methyl-2-oxo-1,2-dihydropyridin-4-yl)propanoyl)-2-azabicyclo[2.1.1]hexan-4-yl)methoxy)-1-methylpyridin-2(1H)-one]
0.01 to 0.1 µM | Cc1cc(OCC23CN(C(=O)CC45CCC(CC4)CC5)C(CNc4cccc5c(N)nccc45)(C2)C3)cc(=O)n1C [Example 21, 4-((1-(((1-aminoisoquinolin-5-yl)amino)methyl)-2-(2-(bicyclo[2.2.2]octan-1-yl)acetyl)-2-azabicyclo[2.1.1]hexan-4-yl)methoxy)-1,6-dimethylpyridin-2(1H)-one]
